Assay results reported in patent US11571423B2, “Small molecule modulators of human sting” (Curadev Pharma Limited, priority 2017, dated 2023).
Counter-ions that a name gives are not always drawn.

Key:
NF-κB pathway = assay: Reporter gene expression assay in THP1-Dual cells, NFkB axis (secreted SEAP); type: cell-based, human; conditions: Homo sapiens, 20 hr stimulation, EC50 range class, read-out: THP-NFκB activity
Procedure: (§1) THP1-Dual™ cells (Invivogen) were derived from the human THP-1 monocyte cell line by stable integration of two inducible reporter constructs. As a result, THP1-Dual™ cells allow the simultaneous study of the NF-κB pathway, by monitoring the activity of secreted SEAP, and the IRF pathway, by assessing the activity of a secreted luciferase (Lucia). 5×10^5 THP1-Dual™ cells were seeded in 384-well plates in growth medium and stimulated with novel compounds. After 20 hr of stimulation supernatants were removed and reporter proteins were readily measured in the cell culture supernatant using QUANTI-Blue™ (Invivogen), a SEAP detection reagent, and QUANTI-Luc™ (Invivogen), a luciferase detection reagent on a Spectramax i3X luminometer.
(§2) EC50 value ranges for exemplary compounds tested in the above assay are given.

hSTING(R232) = hSTING(R232) (Homo sapiens, UniProt Q86WV6, H232R); assay: Luciferase reporter assay in HEK293T-hSTING-Luciferase cells, R232 (wild type) human STING; type: cell-based; conditions: 20 hr stimulation, read-out: R232 human activity (EC50 range)
hSTING(R232), sequence (Q86WV6 whole entry H232R): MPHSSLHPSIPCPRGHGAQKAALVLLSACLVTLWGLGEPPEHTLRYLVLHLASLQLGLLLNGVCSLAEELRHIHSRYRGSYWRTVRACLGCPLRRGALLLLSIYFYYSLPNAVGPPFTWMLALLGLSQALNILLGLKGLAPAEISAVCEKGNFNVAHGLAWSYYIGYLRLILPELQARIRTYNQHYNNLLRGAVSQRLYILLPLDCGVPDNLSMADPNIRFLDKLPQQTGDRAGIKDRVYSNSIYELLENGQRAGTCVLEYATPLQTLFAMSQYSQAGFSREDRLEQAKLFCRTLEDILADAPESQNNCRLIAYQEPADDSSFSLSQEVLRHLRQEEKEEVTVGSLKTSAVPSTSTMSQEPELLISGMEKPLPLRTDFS
Summary of the method: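 Clonal HEK293T cells stably expressing STING from a pUNO-1 plasmid plus an ISRE/ISG54-driven secreted luciferase reporter; 5×10^5 cells stimulated with compound for 20 hr. Supernatant luciferase read by luminescence, giving fold-induction over baseline and EC50.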

hSTING(HAQ) = hSTING(HAQ) (Homo sapiens, UniProt Q86WV6, G230A/H232R/R293Q/R71H); assay: Luciferase reporter assay in HEK293T-hSTING-Luciferase cells, HAQ polymorph; type: cell-based; conditions: HAQ polymorph of human STING, EC50 range class
hSTING(HAQ), sequence (Q86WV6 whole entry R71H/G230A/H232R/R293Q): as the sequence (Q86WV6 whole entry H232R) above, with R71H, G230A, R293Q counted along it
Excerpt: (§3) Stable Cell Line Generation • a) Stable STING expressing cells—Stable HEK293T STING-expressing cell lines were generated using plasmids purchased from Invivogen, CA, USA, that contain STING cDNA cloned into the pUNO-1 vector under hEF1-HTLV promoter and containing the Blasticidin selection cassette. The plasmids hSTING(R232), hSTING(H232), hSTING(HAQ) were directly procured from Invivogen while hSTING (AQ) and hSTING (Q) were derived from hSTING(HAQ) and hSTING (R232) plasmids respectively by using a PCR based site directed mutagenesis method. These vectors were individually transfected into HEK293T cells using Lipofectamine (Invitrogen) and transfected cells were selected under Blasticidin selection. These transfected cells were further subjected to clonal selection using the limiting dilution method to obtain clonally pure populations of HEK cells transfected with each of the above mentioned human STING variants. Only those clones were selected in which ligand independent activation of STING was minimal. • b) Stable Luciferase reporter gene expressing cells—Stable HEK293T Luciferase reporter gene expressing cell lines were generated using pCDNA4 plasmids under an IRF-inducible promoter. This promoter is comprised of five tandem interferon-stimulated response elements (ISRE) fused to an ISG54 minimal promoter. This vector was transfected into HEK293T cells using Lipofectamine (Invitrogen) and transfected cells were selected under Zeocin selection. These transfected cells were further subjected to clonal selection using the limiting dilution method to obtain clonally pure populations of HEK cells transfected the Luciferase reporter construct. Only those clones were selected in which ligand independent induction of luciferase was minimal.
(§4) 5×10^5 clonally selected HEK293T-hSTING-Luciferase cells were seeded in 384-well plates in growth medium and stimulated with novel compounds. After 20 hr of stimulation supernatant were removed and secretary reporter gene activity were measured using the Quanti-Luc detection system (Invivogen) on a Spectramax i3X luminometer.
(§5) In the tables below, EC50 value ranges for exemplary compounds are given.
(§6) Single nucleotide polymorphisms of human STING have been described, which can affect the functional potency of compounds that modulate the activity of the STING protein (see Yi et. al., PLoS One, October 2013, 8(10), e77846). The 5 major polymorphisms of human STING are shown in FIG. 1, with their prevalence in human populations indicated.
(§7) The tables below show the potency of selected compounds of the invention against the most common polymorphisms.

hSTING(H232) = hSTING(H232) (Homo sapiens, UniProt Q86WV6); assay: Luciferase reporter assay in HEK293T-hSTING-Luciferase cells, H232/REF polymorph; type: cell-based; conditions: H232/REF polymorph of human STING, EC50 range class
hSTING(H232), sequence (Q86WV6 whole entry): as the sequence (Q86WV6 whole entry H232R) above, with R232H counted along it
Excerpt: as §3, §4, §5, §6, §7

IRF pathway = assay: Reporter gene expression assay in THP1-Dual cells, IRF axis (secreted Lucia luciferase); type: cell-based, human; conditions: Homo sapiens, 20 hr stimulation, EC50 range class, read-out: THP-IRF activity
Procedure: as §1, §2

EC50 (NF-κB pathway) | EC50 (hSTING(R232)) | EC50 (hSTING(HAQ)) | EC50 (hSTING(H232)) | EC50 (IRF pathway) | SMILES
> 10000 nM | < 1000 nM | 1000 to 10000 nM | 1000 to 10000 nM | > 10000 nM | Cc1ccc(CNC(=O)c2ccc3c(c2)N(Cc2c(F)cccc2Cl)C(=O)N(C)C3C)o1 (stereo not drawn) [Example 212, 1-(2-chloro-6-fluorobenzyl)-3,4-dimethyl-N-((5-methylfuran-2-yl)methyl)-2-oxo-1,2,3,4-tetrahydroquinazoline-7-carboxamide]
< 1000 nM | < 1000 nM | < 1000 nM | < 1000 nM | < 1000 nM | COc1cccc(F)c1CN1C(=O)N(C)C(C)c2ccc(C(=O)NCc3c(F)cc(F)cc3F)cc21 (stereo not drawn) [Example 153, 1-(2-fluoro-6-methoxybenzyl)-3,4-dimethyl-2-oxo-N-(2,4,6-trifluorobenzyl)-1,2,3,4-tetrahydroquinazoline-7-carboxamide]
1000 to 10000 nM | < 1000 nM | 1000 to 10000 nM | 1000 to 10000 nM | 1000 to 10000 nM | C[C@H]1c2ccc(C(=O)NCc3c(F)cc(F)cc3F)cc2N(Cc2ccc(N=[N+]=[N-])cc2)C(=O)N1C [Example 239, (S)-1-(4-azidobenzyl)-3,4-dimethyl-2-oxo-N-(2,4,6-trifluorobenzyl)-1,2,3,4-tetrahydroquinazoline-7-carboxamide]
1000 to 10000 nM | 1000 to 10000 nM | 1000 to 10000 nM | 1000 to 10000 nM | 1000 to 10000 nM | Cc1cc(CN2C(=O)N(C)Cc3ccc(C(=O)NCc4c(F)cc(F)cc4F)cc32)on1 [Example 54, 3-methyl-1-((3-methylisoxazol-5-yl)methyl)-2-oxo-N-(2,4,6-trifluorobenzyl)-1,2,3,4-tetrahydroquinazoline-7-carboxamide]
> 10000 nM | < 1000 nM | > 10000 nM | > 10000 nM | > 10000 nM | CC1c2ccc(C(=O)NCc3c(F)cc(F)cc3F)cc2N(Cc2cc(C(N)=O)ccc2F)C(=O)N1C (stereo not drawn) [Example 167, 1-(5-carbamoyl-2-fluorobenzyl)-3,4-dimethyl-2-oxo-N-(2,4,6-trifluorobenzyl)-1,2,3,4-tetrahydroquinazoline-7-carboxamide]
1000 to 10000 nM | < 1000 nM | 1000 to 10000 nM | 1000 to 10000 nM | 1000 to 10000 nM | CC1c2ccc(C(=O)NCc3cc4ccccc4o3)cc2N(Cc2c(F)cccc2Cl)C(=O)N1C (stereo not drawn) [Example 213, N-(benzofuran-2-ylmethyl)-1-(2-chloro-6-fluorobenzyl)-3,4-dimethyl-2-oxo-1,2,3,4-tetrahydroquinazoline-7-carboxamide]
1000 to 10000 nM | < 1000 nM | < 1000 nM | < 1000 nM | 1000 to 10000 nM | CNc1cccc(F)c1CN1C(=O)N(C)C(C)c2ccc(C(=O)NCc3c(F)cc(F)cc3F)cc21 (stereo not drawn) [Example 174, 1-(2-fluoro-6-(methylamino)benzyl)-3,4-dimethyl-2-oxo-N-(2,4,6-trifluorobenzyl)-1,2,3,4-tetrahydroquinazoline-7-carboxamide]
1000 to 10000 nM | < 1000 nM | < 1000 nM | < 1000 nM | 1000 to 10000 nM | CC1c2ncc(C(=O)NCc3c(F)cc(F)cc3F)cc2N(Cc2c(F)cccc2Cl)C(=O)N1C (stereo not drawn) [Example 148, 1-(2-Chloro-6-fluorobenzyl)-3,4-dimethyl-2-oxo-N-(2,4,6-trifluorobenzyl)-1,2,3,4-tetrahydropyrido[3,2-d]pyrimidine-7-carboxamide]
1000 to 10000 nM | < 1000 nM | 1000 to 10000 nM | 1000 to 10000 nM | 1000 to 10000 nM | C[C@H]1c2ccc(C(=O)NCc3c(F)cc(F)cc3F)cc2N(Cc2ncccc2F)C(=O)N1C [Example 227, (S)-1-((3-fluoropyridin-2-yl)methyl)-3,4-dimethyl-2-oxo-N-(2,4,6-trifluorobenzyl)-1,2,3,4-tetrahydroquinazoline-7-carboxamide]
1000 to 10000 nM | < 1000 nM | < 1000 nM | < 1000 nM | 1000 to 10000 nM | Cc1cc(CN2C(=O)N(C)C(C)c3ccc(C(=O)NCc4c(F)cc(F)cc4F)cc32)c(F)cn1 (stereo not drawn) [Example 237, 1-((5-fluoro-2-methylpyridin-4-yl)methyl)-3,4-dimethyl-2-oxo-N-(2,4,6-trifluorobenzyl)-1,2,3,4-tetrahydroquinazoline-7-carboxamide]
> 10000 nM | < 1000 nM | 1000 to 10000 nM | 1000 to 10000 nM | > 10000 nM | CC1c2ccc(C(=O)NCc3c(F)cc(F)cc3F)cc2N(Cc2c(F)cccc2OS(C)(=O)=O)C(=O)N1C (stereo not drawn) [Example 204, 2-((3,4-dimethyl-2-oxo-7-((2,4,6-trifluorobenzyl)carbamoyl)-3,4-dihydroquinazolin-1(2H)-yl)methyl)-3-fluorophenyl methanesulfonate]
< 1000 nM | < 1000 nM | < 1000 nM | < 1000 nM | < 1000 nM | C[C@H]1c2ccc(C(=O)NCc3c(F)cc(F)cc3F)cc2N(Cc2c(N)ccc(F)c2F)C(=O)N1C [Example 285, (S)-1-(6-amino-2,3-difluorobenzyl)-3,4-dimethyl-2-oxo-N-(2,4,6-trifluorobenzyl)-1,2,3,4-tetrahydroquinazoline-7-carboxamide]
1000 to 10000 nM | < 1000 nM | 1000 to 10000 nM | < 1000 nM | 1000 to 10000 nM | C[C@H]1c2ccc(C(=O)NCc3c(F)cc(F)cc3F)cc2N(Cc2c(F)cccc2NCCO)C(=O)N1C [Example 264, (S)-1-(2-fluoro-6-((2-hydroxyethyl)amino)benzyl)-3,4-dimethyl-2-oxo-N-(2,4,6-trifluorobenzyl)-1,2,3,4-tetrahydroquinazoline-7-carboxamide hydrochloride]
1000 to 10000 nM | < 1000 nM | < 1000 nM | < 1000 nM | 1000 to 10000 nM | COC(=O)c1ccc(F)c(CN2C(=O)N(C)[C@@H](C)c3ccc(C(=O)NCc4c(F)cc(F)cc4F)cc32)c1Cl [Example 185, (S)-methyl 2-chloro-3-((3,4-dimethyl-2-oxo-7-((2,4,6-trifluorobenzyl)carbamoyl)-3,4-dihydroquinazolin-1(2H)-yl)methyl)-4-fluorobenzoate]
1000 to 10000 nM | < 1000 nM | 1000 to 10000 nM | 1000 to 10000 nM | 1000 to 10000 nM | Cc1ccc(F)c(CN2C(=O)N(C)C(C)c3ccc(C(=O)NCc4c(F)cc(F)cc4F)cc32)n1 (stereo not drawn) [Example 238, 1-((3-fluoro-6-methylpyridin-2-yl)methyl)-3,4-dimethyl-2-oxo-N-(2,4,6-trifluorobenzyl)-1,2,3,4-tetrahydroquinazoline-7-carboxamide]
1000 to 10000 nM | < 1000 nM | < 1000 nM | < 1000 nM | 1000 to 10000 nM | C[C@H]1c2ccc(C(=O)NCc3c(F)cc(O)cc3F)cc2N(Cc2c(F)cccc2Cl)C(=O)N1C [Example 252, (S)-1-(2-chloro-6-fluorobenzyl)-N-(2,6-difluoro-4-hydroxybenzyl)-3,4-dimethyl-2-oxo-1,2,3,4-tetrahydroquinazoline-7-carboxamide]
< 1000 nM | – | < 1000 nM | < 1000 nM | < 1000 nM | CC1c2ccc(C(=O)NCc3c(F)cc(F)cc3F)cc2N(Cc2c(F)cccc2Br)C(=O)N1C (stereo not drawn) [Example 193, 1-(2-bromo-6-fluorobenzyl)-3,4-dimethyl-2-oxo-N-(2,4,6-trifluorobenzyl)-1,2,3,4-tetrahydroquinazoline-7-carboxamide]
